Patent US5888978A, “Method for reducing the severity of gastro-intestinal damage” (Trega Biosciences, Inc., priority 1995, dated 1999)

Tested on: indomethacin treated rats
Experiment: indomethacin-induced GI damage in rats (diarrhea and survival)
Type: in vivo, Harlan Sprague-Dawley rats
Details: Ind-CRA-1 group
Procedure: As disclosed herein, administration of a CRA reduced the severity of GI damage in indomethacin treated rats. The effect of indomethacin administration on GI damage to rats is a well recognized model for studying the efficacy of agents that can affect GI damage (see, for example, Perkins et al., J. Pharmacol. Expt. Ther. 269:151-156 (1994)). In the model system used in the experiments described in Example I, the appearance of diarrhea and animal survival were determined following administration of indomethacin, alone, or with concurrent treatment using a cytokine regulatory agent.
The CRA, Ac-Nle-Gln-His-(D)Phe-Arg-(D)Trp-Gly-NH2 (CRA-1), was prepared as described (U.S. Pat. No. 5,420,109, supra, 1995). Adult male Harlan Sprague-Dawley rats (325-425 g) were divided into four groups (6 rats/group). Rats were weighed every morning and food was removed prior to receiving any treatment. Two groups of rats were pretreated by intraperitoneal (ip) injection of sterile saline, alone ("control"), and the remaining two groups were pretreated by ip injection of CRA-1 (100 μg/kg in saline). Pretreatment injections were administered between 8:00-9:00 am.
One hr following the pretreatment, one group of control rats was injected ip, on the side opposite the initial injection, with saline (Sal-control) and the other control group was injected with indomethacin (Ind-control; 10 mg/kg in saline, adjusted to pH 7.5-8.5 with NaOH). Similarly, the two groups of CRA-1 treated rats received either saline (Sal-CRA-1) or indomethacin (Ind-CRA-1). At 8 hr and 16 hr after the pretreatment, control rats and CRA-1 rats were administered saline or CRA-1, respectively. Food was returned to the rats after the 8 hr injection. This protocol was repeated for 7 days.

## CCCC[C@H](NC(C)=O)C(=O)N[C@@H](CCC(N)=O)C(=O)N[C@@H](Cc1c[nH]cn1)C(=O)N[C@H](Cc1ccccc1)C(=O)N[C@@H](CCCNC(=N)N)C(=O)N[C@H](Cc1c[nH]c2ccccc12)C(=O)NCC(N)=O [CRA-1, Ac-Nle-Gln-His-(D)Phe-Arg-(D)Trp-Gly-NH2]
2 of the surviving 5 rats, CRA-1 100 μg/kg ip plus indomethacin 10 mg/kg ip, all 3 surviving Ind-saline rats had diarrhea
  surviving rats with diarrhea by day 7: 40%
3/5, CRA-1 100 μg/kg ip plus indomethacin 10 mg/kg ip
  surviving rats with diarrhea by day 8: 60%
5/6, CRA-1 100 μg/kg ip plus indomethacin 10 mg/kg ip, Ind-saline control 66.7% lethality
  survival by day 8: 83.3%
6 rats, CRA-1 100 μg/kg ip (pretreatment, 8 hr and 16 hr) plus indomethacin 10 mg/kg ip daily, Ind-saline control 5 of 6 (83.3%)
  rats with diarrhea at day 4: none
CRA-1 100 μg/kg ip plus indomethacin 10 mg/kg ip daily for 7 days, Ind-saline control 3 of 6 died
  rats that had died by day 7: 1 of the 6
